The values below come from PubChem BioAssay (NCI).

The TGI is the concentration at which net growth stops. For orientation: GI50 means the concentration that inhibits growth by half.

Some test systems named below: OVCAR-3 ovarian; SK-MEL-2 melanoma; OVCAR-8 ovarian; UACC-62 melanoma; CCRF-CEM leukemia; HCT-15 colon; U251 CNS; RXF 393 renal; MDA-MB-231 breast.
What all share (experiment): DTP human tumour cell line panel, 48 h

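Exposure lasted 48 hours, with cells grown in 96-well plates and compounds tested at five concentrations. GI50 marks 50% less growth. TGI: concentration producing complete growth inhibition.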

Turning to `Cc1ccc2c(c1)CNc1ccc(C)cc1CN2`, the TGI in the experiment with OVCAR-3 ovarian, in the experiment on SK-MEL-2 melanoma, in the experiment on OVCAR-8 ovarian, in the experiment with UACC-62 melanoma, in the experiment with CCRF-CEM leukemia and in the experiment on HCT-15 colon was greater than 100 µM each time. Further, the TGI in the experiment on U251 CNS was greater than 100 µM.
Turning to `CC1(O)CCC2(C#N)CCC1C2O` (configuration not stated), the TGI in the experiment on OVCAR-3 ovarian, with SK-MEL-2 melanoma, with RXF 393 renal, in the experiment on OVCAR-8 ovarian, in the experiment with UACC-62 melanoma and in the experiment on CCRF-CEM leukemia was greater than 100 µM throughout. Further, the TGI in the experiment with HCT-15 colon and in the experiment on U251 CNS was greater than 100 µM throughout.
Consider `Cc1ccc(Sc2sc(-c3ccccc3)nc2[P+](c2ccccc2)(c2ccccc2)c2ccccc2)cc1`, for which the GI50 is 0.346 µM with OVCAR-3 ovarian; 0.275 µM with SK-MEL-2 melanoma; 0.251 µM in the experiment on MDA-MB-231 breast; 0.331 µM in the experiment on RXF 393 renal; 0.305 µM with OVCAR-8 ovarian; 0.317 µM in the experiment with UACC-62 melanoma. In addition, the results for the GI50 in the experiment on CCRF-CEM leukemia, in the experiment on HCT-15 colon and in the experiment with U251 CNS were 0.373 µM, 0.3 µM and 0.214 µM, respectively. For the same compound, the total growth inhibition concentration (TGI) in the experiment on OVCAR-3 ovarian is 1.23 µM; in the experiment on SK-MEL-2 melanoma it was 0.808 µM; in the experiment on MDA-MB-231 breast, 0.943 µM; with RXF 393 renal, 1.38 µM; in the experiment on OVCAR-8 ovarian it was 1.67 µM; in the experiment with UACC-62 melanoma it was 1.25 µM. Moreover, the TGI came out at 2 µM in the experiment on CCRF-CEM leukemia, 1.14 µM in the experiment on HCT-15 colon and 1.4 µM in the experiment on U251 CNS.
Consider `C=CCn1cc(C(=O)NC(=O)NCCCCCOC(=O)CCCCCCCCCCC(=O)OCCCCCNC(=O)NC(=O)c2cn(CC=C)c(=O)n(C)c2=O)c(=O)n(C)c1=O`, for which the TGI in the experiment on OVCAR-3 ovarian, in the experiment with SK-MEL-2 melanoma, in the experiment on RXF 393 renal, in the experiment on OVCAR-8 ovarian, in the experiment with UACC-62 melanoma and in the experiment with CCRF-CEM leukemia was greater than 100 µM in each case. In addition, the TGI with HCT-15 colon and in the experiment on U251 CNS was greater than 100 µM each time.
For the compound `Cc1c2c(cc3c(=O)ccn(CCN(C)C)c13)c(=O)ccn2CCN(C)C`, the TGI amounted to 34.9 µM in the experiment with OVCAR-3 ovarian; 44.4 µM in the experiment with SK-MEL-2 melanoma; 28.9 µM in the experiment on RXF 393 renal; 21.8 µM with OVCAR-8 ovarian; 31.6 µM in the experiment on UACC-62 melanoma; 27.9 µM in the experiment on CCRF-CEM leukemia. Besides, the TGI in the experiment on HCT-15 colon worked out at 24.1 µM; in the experiment on U251 CNS, 23 µM.
On to `N#C/C(=C\c1ccc(C(O)P(=O)(O)O)cc1)C(N)=O` (configuration not stated), for which the TGI with OVCAR-3 ovarian, in the experiment on SK-MEL-2 melanoma, with OVCAR-8 ovarian, in the experiment with UACC-62 melanoma, in the experiment on CCRF-CEM leukemia and with HCT-15 colon was greater than 100 µM in each case. In addition, in the experiment with U251 CNS, the total growth inhibition concentration (TGI) was greater than 100 µM.
Regarding `c1ccc(COC2(OCc3ccccc3)CC3OC2C2NN=NC32)cc1` (configuration not stated), the TGI with OVCAR-3 ovarian was 33.8 µM; in the experiment on SK-MEL-2 melanoma, greater than 10 µM; in the experiment on RXF 393 renal, greater than 100 µM; in the experiment on UACC-62 melanoma, 46.6 µM; with CCRF-CEM leukemia, 33.1 µM; in the experiment with HCT-15 colon, 90.6 µM. Besides, the TGI with U251 CNS amounted to 32.6 µM.
Turning to `COc1cc2c(cn1)[nH]c1ccccc12`, the TGI in the experiment with OVCAR-3 ovarian, with SK-MEL-2 melanoma, with OVCAR-8 ovarian, in the experiment with UACC-62 melanoma, in the experiment with CCRF-CEM leukemia and in the experiment on HCT-15 colon was greater than 100 µM throughout. The TGI in the experiment on U251 CNS is greater than 100 µM.
For the compound `NNC(=O)/C(NC(=O)c1ccccc1)=C(\N)c1ccc(Cl)cc1`, the total growth inhibition concentration (TGI) in the experiment with OVCAR-3 ovarian, in the experiment with SK-MEL-2 melanoma, with RXF 393 renal, in the experiment with OVCAR-8 ovarian, in the experiment with UACC-62 melanoma and in the experiment with CCRF-CEM leukemia was greater than 100 µM in each case. Further, the TGI in the experiment with HCT-15 colon and with U251 CNS was greater than 100 µM each time.
Regarding `CC1C(=O)O[C@H]2C1CC[C@@]1(C)[C@H](O)CC[C@@]13C[C@]2(O)OO3` (some centres not stated), the TGI in the experiment on OVCAR-3 ovarian, in the experiment on OVCAR-8 ovarian, in the experiment with UACC-62 melanoma, in the experiment on CCRF-CEM leukemia, in the experiment with HCT-15 colon and in the experiment on U251 CNS was greater than 100 µM in each case.
`COc1ccc(-c2c(N)[n+]([O-])c3ccccc3[n+]2[O-])cc1OC`: the TGI with OVCAR-3 ovarian, with SK-MEL-2 melanoma, in the experiment with OVCAR-8 ovarian, in the experiment with HCT-15 colon and in the experiment with U251 CNS was greater than 100 µM throughout.
Regarding `O=C(c1ccc(Cl)cc1)c1ccc(OCCSCCCCCCCCCCSCCOc2ccc(C(=O)c3ccc(Cl)cc3)cc2)cc1`, the TGI in the experiment with OVCAR-3 ovarian, in the experiment on SK-MEL-2 melanoma, in the experiment on RXF 393 renal, in the experiment with OVCAR-8 ovarian, with UACC-62 melanoma and in the experiment on CCRF-CEM leukemia was greater than 100 µM in each case. Also, the TGI in the experiment with HCT-15 colon and with U251 CNS was greater than 100 µM in each case.
Take `COc1cc2c(c(OC)c1OC)-c1ccc(OC)c(=O)cc1[C@@H](N(C)C=O)CC2`: the TGI with OVCAR-3 ovarian is 0.047 µM; with SK-MEL-2 melanoma, 0.0487 µM; in the experiment on OVCAR-8 ovarian it was greater than 100 µM; in the experiment with UACC-62 melanoma it was greater than 100 µM; with CCRF-CEM leukemia, greater than 100 µM; with HCT-15 colon, greater than 100 µM. In addition, the TGI in the experiment with U251 CNS was greater than 4.68 µM.
In the case of `CC/C=C/c1cc2cc[nH]c2c2c1C(C)C[C@@H]2C` (some centres not stated), the TGI in the experiment on OVCAR-3 ovarian was determined as 40.5 µM; in the experiment on RXF 393 renal, 41.3 µM; with OVCAR-8 ovarian, 66.2 µM; in the experiment with UACC-62 melanoma, 41.8 µM; in the experiment on CCRF-CEM leukemia, 61.9 µM; with HCT-15 colon, 82.5 µM. The TGI with U251 CNS came to 51.2 µM.
As to `S=c1nc(N2CCCCC2)ss1`, the TGI with SK-MEL-2 melanoma was 37.7 µM; with RXF 393 renal it was 33.4 µM; in the experiment on OVCAR-8 ovarian, greater than 100 µM; with UACC-62 melanoma it was 35.4 µM; with CCRF-CEM leukemia, 46.4 µM; in the experiment with HCT-15 colon, 62.6 µM. The TGI with U251 CNS was 38 µM.
Regarding `C=C1C(=O)OC2CC(C)C3C=CC(=O)C3CC12` (configuration not stated), the TGI in the experiment with OVCAR-3 ovarian came out at 13.6 µM; in the experiment with SK-MEL-2 melanoma, 4.49 µM; in the experiment with MDA-MB-231 breast, 3.74 µM; in the experiment with RXF 393 renal, 3.03 µM; with OVCAR-8 ovarian it was 14.4 µM; with UACC-62 melanoma, 3.74 µM. Further, the TGI in the experiment with CCRF-CEM leukemia is 5.14 µM; in the experiment with HCT-15 colon, 4.16 µM; in the experiment on U251 CNS, 20.6 µM.
